# Experimental data reported in patent US7056947B2, “Aza-peptide epoxides” (Georgia Tech Research Corp., priority 2002, dated 2006).
# Tests used:
# Format in all cases: biochemical
# [1] = target: T1, caspase-1 (Homo sapiens, UniProt P29466, D381E); assay: Caspase-1 progress curve assay; conditions: D381E variant, substrate Ac-YVAD-AMC, 30° C.
# T1 construct: His tag (N); made in house; host or cells: E. coli
# T1 sequence (P29466 120-297 limits assumed): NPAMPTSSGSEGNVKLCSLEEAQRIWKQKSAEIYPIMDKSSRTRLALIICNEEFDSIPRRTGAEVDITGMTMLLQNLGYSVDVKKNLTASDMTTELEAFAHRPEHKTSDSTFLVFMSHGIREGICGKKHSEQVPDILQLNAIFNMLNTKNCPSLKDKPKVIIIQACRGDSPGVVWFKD
# T1 sequence (P29466 317-404 D381E limits assumed): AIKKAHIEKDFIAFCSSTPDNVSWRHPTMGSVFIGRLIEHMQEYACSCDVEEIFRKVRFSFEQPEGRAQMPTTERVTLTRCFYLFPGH
# Summary of the method: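 Autolysis-resistant D381E caspase-1 (E. coli, N-His tag), about 2 nM, added with 15 μM Ac-YVAD-AMC in HEPES/glycerol/EDTA buffer with 5 mM DTT to prewarmed compound at 30 °C. AMC fluorescence followed 900 s, triplicate curves fit to irreversible inactivation; kon (M^−1s^−1) from regression slope.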
# [2] = target: T2, caspase-3 (Homo sapiens, UniProt P42574); assay: Caspase-3 progress curve assay; conditions: substrate Z-DEVD-AFC; NI = no inhibition
# T2 construct: made in house; host or cells: E. coli
# T2 sequence (P42574 29-175 limits assumed): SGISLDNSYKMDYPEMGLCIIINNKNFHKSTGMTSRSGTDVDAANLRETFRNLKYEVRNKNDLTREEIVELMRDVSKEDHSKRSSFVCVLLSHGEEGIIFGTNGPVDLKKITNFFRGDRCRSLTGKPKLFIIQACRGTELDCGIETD
# T2 sequence (P42574 176-277 limits assumed): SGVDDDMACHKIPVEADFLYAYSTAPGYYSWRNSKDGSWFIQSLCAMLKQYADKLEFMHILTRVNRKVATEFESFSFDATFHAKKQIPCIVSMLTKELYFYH
# Summary of the method: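 E. coli-expressed caspases, pre-activated 10 min at 37° C with 10 mM DTT, were added to 100 μM Z-DEVD-AFC plus inhibitor in 50 mM Hepes, 100 mM NaCl, 0.1% CHAPS, 10% sucrose, 10 mM DTT, pH 7.4. AFC fluorescence (ex 400/em 505 nm) was followed; inhibition rates and equilibria came from progress curves.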
# [3] = target: T3, caspase-6 (Homo sapiens, UniProt P55212); assay: Caspase-6 progress curve assay; conditions: Table V, substrate Z-DEVD-AFC
# T3 construct: made in house; host or cells: E. coli
# T3 sequence (P55212 24-179 limits assumed): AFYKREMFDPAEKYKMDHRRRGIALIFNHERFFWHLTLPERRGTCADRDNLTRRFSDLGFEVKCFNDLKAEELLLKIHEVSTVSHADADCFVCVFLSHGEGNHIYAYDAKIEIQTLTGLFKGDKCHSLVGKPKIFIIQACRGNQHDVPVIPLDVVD
# T3 sequence (P55212 194-293 limits assumed): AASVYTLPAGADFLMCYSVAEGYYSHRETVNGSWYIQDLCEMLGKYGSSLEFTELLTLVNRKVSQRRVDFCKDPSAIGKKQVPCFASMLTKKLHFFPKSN
# Description: Caspase-3, -6, and -8. Caspase-3, -6 and -8 were expressed in E. coli and purified according to methods previously described by Stennicke and Salvesen. Assays using the fluorogenic substrate Z-DEVD-AFC (λex=400 nm, λem=505 nm) were carried out on a Molecular Devices fMax fluorescence microplate reader. Inhibition rates and equilibria were determined by the progress curve method. The standard 100 μL reaction was started by adding enzyme to a mixture of substrate (final concentration of Z-DEVD-AFC 100 μM) and various amounts of inhibitor in buffer (50 mM Hepes, 100 mM NaCl, 0.1% (w/v) CHAPS, sucrose 10% (w/v), and 10 mM DTT, at pH 7.4). The caspases were pre-activated for 10 min at 37° C. in the presence of 10 mM DTT.
# [4] = target: T4, papain (Carica papaya, UniProt P00784); assay: Inhibition of papain, incubation method; conditions: second-order rate constant, NI = no inhibition; for kinact/KI: pH 7.5, read-out: kobs/[I] papain
# T4 sequence (P00784 134-345): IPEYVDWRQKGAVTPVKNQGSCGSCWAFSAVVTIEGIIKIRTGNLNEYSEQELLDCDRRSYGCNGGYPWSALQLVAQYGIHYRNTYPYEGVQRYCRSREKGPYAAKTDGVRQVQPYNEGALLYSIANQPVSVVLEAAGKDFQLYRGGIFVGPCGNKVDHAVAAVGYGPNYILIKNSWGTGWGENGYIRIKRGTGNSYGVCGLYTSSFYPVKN
# Summary of the method: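 Papain (~0.29 mg/mL) incubated with inhibitor in 50 mM Hepes pH 7.5, 2.5 mM DTT, 2.5 mM EDTA; residual activity read on Z-Phe-Arg-pNA (53.7 μM) by p-nitroanilide release at 405 nm. Pseudo-first-order inactivation constants from ln vt/vo versus time.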
# [5] = target: cathepsin B (Homo sapiens, UniProt P07858); assay: Inhibition of cathepsin B, incubation method; conditions: second-order rate constant, NI = no inhibition; for kinact/KI: pH 6, read-out: kobs/[I] cathepsin B
# From the text: The release of 7-amino-4-methylcoumarin was monitored (λex=360 nm, λem=465 nm) using a Tecan Spectra Fluor microplate reader. Pseudo first-order inactivation rate constants were obtained from plots of In vt/vo versus time.
# [6] = system: calpain; assay: Inhibition of calpain; conditions: second-order rate constant; NI = no inhibition
# [7] = target: dipeptidyl peptidase I (DPPI, cathepsin C) (Homo sapiens, UniProt P53634); assay: Inhibition of DPPI
# Sequence of dipeptidyl peptidase I (DPPI, cathepsin C) (P53634 25-463, species assumed): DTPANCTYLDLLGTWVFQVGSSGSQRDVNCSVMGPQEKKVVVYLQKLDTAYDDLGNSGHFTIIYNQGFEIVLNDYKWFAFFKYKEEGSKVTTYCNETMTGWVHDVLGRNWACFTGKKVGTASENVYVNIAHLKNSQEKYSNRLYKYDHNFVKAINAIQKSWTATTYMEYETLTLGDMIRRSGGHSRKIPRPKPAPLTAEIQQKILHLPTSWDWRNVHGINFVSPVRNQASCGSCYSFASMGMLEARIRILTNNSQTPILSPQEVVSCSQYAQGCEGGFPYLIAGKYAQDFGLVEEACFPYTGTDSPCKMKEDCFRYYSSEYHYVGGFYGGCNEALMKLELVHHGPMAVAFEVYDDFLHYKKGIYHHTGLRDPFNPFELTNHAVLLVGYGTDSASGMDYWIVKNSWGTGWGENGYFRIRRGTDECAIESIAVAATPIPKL
Structure (SMILES),k2 caspase-3 [2],k2 caspase-6 [3],kobs/[I] calpain [6],other results
"CC(C)[C@H](NC(=O)CCc1ccccc1)C(=O)N[C@@H](C)C(=O)NN(CC(=O)O)C(=O)[C@H]1O[C@@H]1C(=O)N(Cc1ccccc1)Cc1ccccc1 [10-127, (2S,3S)-2-(Dibenzylcarbamoyl)-3-(N^2-(3-phenylpropanoylvalylalanyl)-N^1-carboxymethylhydrazinocarbonyl)oxirane]",830 ± 40 M⁻¹ s⁻¹,145 ± 1 M⁻¹ s⁻¹,–,k2 caspase-1 [1]: 101140 ± 9547 M⁻¹ s⁻¹
"CCCCN(CCCC)C(=O)[C@H]1O[C@@H]1C(=O)N(CC(=O)O)NC(=O)[C@H](C)NC(=O)[C@@H](NC(=O)CCc1ccccc1)C(C)C [10-129, (2S,3S)-2-(Dibutylcarbamoyl)-3-(N^2-(3-phenylpropanoylvalylalanyl)-N^1-carboxymethylhydrazinocarbonyl)oxirane]",520 ± 10 M⁻¹ s⁻¹,53 ± 9 M⁻¹ s⁻¹,–,k2 caspase-1 [1]: 26150 ± 5460 M⁻¹ s⁻¹
"CC(C)C[C@H](NC(=O)OCc1ccccc1)C(=O)N[C@@H](CCC(=O)O)C(=O)N[C@H](C(=O)NN(CC(=O)O)C(=O)[C@H]1O[C@@H]1C(=O)N(Cc1ccccc1)Cc1ccccc1)[C@@H](C)O [11-4, (2S,3S)-2-(Dibenzylcarbamoyl)-3-(N^2-(N-benzyloxycarbonylleucylglutamylthreonyl)-N^1-carboxymethylhydrazinocarbonyl)oxirane]",2750 ± 205 M⁻¹ s⁻¹,13840 ± 270 M⁻¹ s⁻¹,–,–
"CC[C@H](C)[C@H](NC(=O)OCc1ccccc1)C(=O)N[C@@H](CCC(=O)O)C(=O)N[C@H](C(=O)NN(CC(=O)O)C(=O)[C@H]1O[C@@H]1C(=O)N(Cc1ccccc1)Cc1ccccc1)[C@@H](C)O [11-11, (2S,3S)-2-(Dibenzylcarbamoyl)-3-(N^2-(N-benzyloxycarbonylisoleucylglutamylthreonyl)-N^1-carboxymethylhydrazinocarbonyl)oxirane]",3550 M⁻¹ s⁻¹,32000 ± 1680 M⁻¹ s⁻¹,–,–
"CC(C)C[C@H](NC(=O)OCc1ccccc1)C(=O)N[C@@H](CCC(=O)O)C(=O)N[C@H](C(=O)NN(CC(=O)O)C(=O)[C@H]1O[C@@H]1C(=O)N(C)Cc1ccccc1)[C@@H](C)O [11-16, (2S,3S)-2-(N-Methyl-N-benzylcarbamoyl)-3-(N^2-(N-benzyloxycarbonylleucylglutamylthreonyl)-N^1-carboxymethylhydrazinocarbonyl)oxirane]",2640 ± 100 M⁻¹ s⁻¹,9680 ± 875 M⁻¹ s⁻¹,–,–
"CC(C)[C@H](NC(=O)CCc1ccccc1)C(=O)N[C@@H](C)C(=O)NN(CC(=O)O)C(=O)[C@H]1O[C@@H]1C(=O)N(C)Cc1ccccc1 [11-17, (2S,3S)-2-(N-Methyl-N-benzylcarbamoyl)-3-(N^2-(3-phenylpropanoylvalylalanyl)-N^1-carboxymethylhydrazinocarbonyl)oxirane]",1950 ± 150 M⁻¹ s⁻¹,136 M⁻¹ s⁻¹,–,–
"CC[C@H](C)[C@H](NC(=O)OCc1ccccc1)C(=O)N[C@@H](CCC(=O)O)C(=O)N[C@H](C(=O)NN(CC(=O)O)C(=O)[C@H]1O[C@@H]1C(=O)N(C)Cc1ccccc1)[C@@H](C)O [11-18, (2S,3S)-2-(N-Methyl-N-benzylcarbamoyl)-3-(N^2-(N-benzyloxycarbonylisoleucylglutamylthreonyl)-N^1-carboxymethylhydrazinocarbonyl)oxirane]",4780 M⁻¹ s⁻¹,47730 ± 420 M⁻¹ s⁻¹,–,–
"CCOC(=O)C1OC1C(=O)N(CCc1ccccc1)NC(C)=O (stereo not drawn) [Ac-AHph-trans-EP-COOEt, trans-3-(N^2-(N-Acetyl)-N^1-phenylethylhydrazinocarbonyl)oxirane-2-carboxylic Acid Ethyl Ester]",–,–,1.29 M⁻¹ s⁻¹,kobs/[I] papain [4]: 26.88 M⁻¹ s⁻¹; kobs/[I] cathepsin B [5]: 40.62 M⁻¹ s⁻¹
"CCOC(=O)[C@H]1O[C@@H]1C(=O)N(CCc1ccccc1)NC(=O)C(CC(C)C)NC(=O)OCc1ccccc1 (stereo partly drawn) [Cbz-Leu-AHph-(2S, 3S)-EP-COOEt, (2S,3S)-3-(N^2-(N-Benzyloxycarbonyleucyl)-N^1-phenylethylhydrazinocarbonyl)oxirane-2-carboxylic Acid Ethyl Ester]",–,–,2.28 M⁻¹ s⁻¹,kobs/[I] papain [4]: 5.68 M⁻¹ s⁻¹; kobs/[I] cathepsin B [5]: 0.67 M⁻¹ s⁻¹
"CCOC(=O)[C@H]1O[C@@H]1C(=O)N(CC(C)C)NC(=O)C(CC(C)C)NC(=O)OCc1ccccc1 (stereo partly drawn) [Cbz-Leu-ALeu-(2S, 3S)-EP-COOEt, (2S,3S)-3-(N^2-(N-Benzyloxycarbonyleucyl)-N^1-isobutylhydrazinocarbonyl)oxirane-2-carboxylic Acid Ethyl Ester]",–,–,8.58 M⁻¹ s⁻¹,kobs/[I] papain [4]: 10.53 M⁻¹ s⁻¹; kobs/[I] cathepsin B [5]: 1.8 M⁻¹ s⁻¹
"CCOC(=O)[C@H]1O[C@@H]1C(=O)N(CC(C)C)NC(=O)[C@H](CC(C)C)NC(=O)[C@H](CC(C)C)NC(=O)OCc1ccccc1 [Cbz-Leu-Leu-ALeu-(2S, 3S)-EP-COOEt, (2S,3S)-3-(N^2-(N-Benzyloxycarbonylleucylleucyl)-N^1-isobutylhydrazinocarbonyl)oxirane-2-carboxylic Acid Ethyl Ester]",–,–,2.48 M⁻¹ s⁻¹,kinact/KI [4]: 10.5 M⁻¹ s⁻¹; kinact/KI [5]: 0.98 M⁻¹ s⁻¹
"CC(C)C[C@H](NC(=O)OCc1ccccc1)C(=O)N[C@@H](CC(C)C)C(=O)NN(CC(C)C)C(=O)[C@H]1O[C@@H]1C(=O)O [Cbz-Leu-Leu-ALeu-(2S, 3S)-EP-COOH, (2S,3S)-3-(N^2-(N-Benzyloxycarbonylleucylleucyl)-N^1-isobutylhydrazinocarbonyl)oxirane-2-carboxylic Acid]",–,–,0.82 M⁻¹ s⁻¹,kinact/KI [4]: 6.93 M⁻¹ s⁻¹; kinact/KI [5]: 7.02 M⁻¹ s⁻¹
"CCCCC(N)C(=O)NN(CCc1ccccc1)C(=O)C1OC1C(=O)OCC.O=C(O)C(F)(F)F (stereo not drawn) [Nle-AHph-trans-EP-COOEt.TFA, trans-3-(N^2-Norleucyl)-N^1-phenylethylhydrazinocarbonyl)oxirane-2-carboxylic Acid Ethyl Ester Trifluoroacetate Salt]",–,–,–,kobs/[I] DPPI [7]: 8.2 M⁻¹ s⁻¹
CCCC(N)C(=O)NN(CCc1ccccc1)C(=O)C1OC1C(=O)OCC.O=C(O)C(F)(F)F (stereo not drawn) [Nva-AHph-trans-EP-COOEt.TFA],–,–,–,kobs/[I] DPPI [7]: 3.2 M⁻¹ s⁻¹
